Structures are written as SMILES. Read-outs that look alike come from different tables or passages of the source. Where a SMILES comes first, the peptide text is derived from it. Bridges are numbered along the chain shown (N, C = ends).

One experiment has as its target α2β2 nAChR (Rattus norvegicus, UniProt P12389+P12390). Put plainly: cell-based.
For another experiment, the target named is α6/α3β2β3 nAChR (Rattus norvegicus, UniProt P04757+P12390+P12391+P43143). Put plainly: cell-based.
The target of a further experiment is α3β4 nAChR (Rattus norvegicus, UniProt P04757+P12392). Briefly: cell-based.
The target of another experiment is α7 nAChR (Rattus norvegicus, UniProt Q05941). Put plainly: cell-based.
The next experiment relates to other nAChR subtypes. Format: cell-based, rat.
A further experiment deals with α9α10 nAChR (Rattus norvegicus, UniProt P43144+Q9JLB5). Briefly: cell-based.
The next experiment deals with α3β2 nAChR (Rattus norvegicus, UniProt P04757+P12390). Put plainly: cell-based. The format is cell-based.
The target of another experiment is α4β2 nAChR (Rattus norvegicus, UniProt P09483+P12390). Briefly: cell-based.

Sequence of α3β2 nAChR (P04757 26-499 limits assumed): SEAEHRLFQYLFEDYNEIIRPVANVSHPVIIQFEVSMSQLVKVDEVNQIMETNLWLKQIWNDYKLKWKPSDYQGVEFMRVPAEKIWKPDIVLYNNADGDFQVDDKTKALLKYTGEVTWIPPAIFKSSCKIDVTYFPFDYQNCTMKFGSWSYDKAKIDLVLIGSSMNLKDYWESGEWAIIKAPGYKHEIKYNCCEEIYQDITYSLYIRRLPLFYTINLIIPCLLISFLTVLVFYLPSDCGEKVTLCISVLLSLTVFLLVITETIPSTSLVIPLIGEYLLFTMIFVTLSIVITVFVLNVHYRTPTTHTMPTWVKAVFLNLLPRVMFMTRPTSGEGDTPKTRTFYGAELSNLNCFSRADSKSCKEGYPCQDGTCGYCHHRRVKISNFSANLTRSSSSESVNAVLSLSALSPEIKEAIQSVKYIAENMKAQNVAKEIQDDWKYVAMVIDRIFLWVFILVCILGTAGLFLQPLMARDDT
Sequence of α3β2 nAChR (P12390 25-500 limits assumed): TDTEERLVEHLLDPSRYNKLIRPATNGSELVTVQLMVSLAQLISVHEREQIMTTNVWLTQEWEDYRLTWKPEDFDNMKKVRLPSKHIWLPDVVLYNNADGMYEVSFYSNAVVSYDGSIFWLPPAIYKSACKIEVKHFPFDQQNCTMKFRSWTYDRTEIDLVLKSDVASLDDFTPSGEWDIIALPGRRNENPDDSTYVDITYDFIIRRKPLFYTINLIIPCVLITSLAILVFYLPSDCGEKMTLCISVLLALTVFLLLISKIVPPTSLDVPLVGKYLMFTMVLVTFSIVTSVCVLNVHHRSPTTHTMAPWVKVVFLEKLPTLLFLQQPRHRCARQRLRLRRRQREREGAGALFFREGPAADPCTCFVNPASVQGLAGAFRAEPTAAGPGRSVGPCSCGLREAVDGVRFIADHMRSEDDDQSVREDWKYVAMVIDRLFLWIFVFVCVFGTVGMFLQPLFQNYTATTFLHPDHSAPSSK
Sequence of α9α10 nAChR (P43144 26-479 limits assumed): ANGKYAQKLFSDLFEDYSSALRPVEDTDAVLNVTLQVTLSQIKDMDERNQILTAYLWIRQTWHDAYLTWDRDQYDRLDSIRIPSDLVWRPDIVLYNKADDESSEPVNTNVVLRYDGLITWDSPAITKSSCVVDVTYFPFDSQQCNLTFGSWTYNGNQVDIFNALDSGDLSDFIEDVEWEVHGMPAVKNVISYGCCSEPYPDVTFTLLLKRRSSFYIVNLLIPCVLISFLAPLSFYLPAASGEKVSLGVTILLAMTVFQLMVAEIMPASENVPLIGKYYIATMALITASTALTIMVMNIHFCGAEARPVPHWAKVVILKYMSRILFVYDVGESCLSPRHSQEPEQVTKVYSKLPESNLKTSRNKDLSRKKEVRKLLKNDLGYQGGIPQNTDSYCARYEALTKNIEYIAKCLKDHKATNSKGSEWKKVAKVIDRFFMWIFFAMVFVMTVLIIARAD
Sequence of α9α10 nAChR (Q9JLB5 25-447 limits assumed): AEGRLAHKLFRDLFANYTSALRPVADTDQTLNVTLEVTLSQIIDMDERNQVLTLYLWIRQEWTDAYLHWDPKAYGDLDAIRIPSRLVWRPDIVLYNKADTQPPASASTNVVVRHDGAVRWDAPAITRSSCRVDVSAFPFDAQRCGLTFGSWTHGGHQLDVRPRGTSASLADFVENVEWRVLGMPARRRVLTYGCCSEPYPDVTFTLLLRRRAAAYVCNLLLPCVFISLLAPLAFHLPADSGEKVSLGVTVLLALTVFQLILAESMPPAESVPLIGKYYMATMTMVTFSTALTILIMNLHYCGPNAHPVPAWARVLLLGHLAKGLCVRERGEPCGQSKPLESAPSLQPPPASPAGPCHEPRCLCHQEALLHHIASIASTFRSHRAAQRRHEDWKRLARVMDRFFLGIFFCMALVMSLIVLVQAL
Sequence of α6/α3β2β3 nAChR (P04757 whole entry, looked up): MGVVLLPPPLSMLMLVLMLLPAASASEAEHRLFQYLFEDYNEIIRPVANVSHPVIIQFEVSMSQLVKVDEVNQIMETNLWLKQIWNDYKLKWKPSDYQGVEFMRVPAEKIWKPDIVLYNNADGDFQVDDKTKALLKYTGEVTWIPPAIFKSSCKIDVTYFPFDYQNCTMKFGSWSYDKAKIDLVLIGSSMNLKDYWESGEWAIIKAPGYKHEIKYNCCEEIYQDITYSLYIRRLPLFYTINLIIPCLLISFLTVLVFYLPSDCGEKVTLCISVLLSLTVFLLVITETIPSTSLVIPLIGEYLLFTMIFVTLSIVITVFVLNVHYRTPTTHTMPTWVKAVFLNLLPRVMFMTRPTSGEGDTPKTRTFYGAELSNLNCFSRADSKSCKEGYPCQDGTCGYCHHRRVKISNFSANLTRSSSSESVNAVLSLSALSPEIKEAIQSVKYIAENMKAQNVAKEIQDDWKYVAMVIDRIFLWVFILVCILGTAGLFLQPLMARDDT
Sequence of α6/α3β2β3 nAChR (P12390 whole entry, looked up): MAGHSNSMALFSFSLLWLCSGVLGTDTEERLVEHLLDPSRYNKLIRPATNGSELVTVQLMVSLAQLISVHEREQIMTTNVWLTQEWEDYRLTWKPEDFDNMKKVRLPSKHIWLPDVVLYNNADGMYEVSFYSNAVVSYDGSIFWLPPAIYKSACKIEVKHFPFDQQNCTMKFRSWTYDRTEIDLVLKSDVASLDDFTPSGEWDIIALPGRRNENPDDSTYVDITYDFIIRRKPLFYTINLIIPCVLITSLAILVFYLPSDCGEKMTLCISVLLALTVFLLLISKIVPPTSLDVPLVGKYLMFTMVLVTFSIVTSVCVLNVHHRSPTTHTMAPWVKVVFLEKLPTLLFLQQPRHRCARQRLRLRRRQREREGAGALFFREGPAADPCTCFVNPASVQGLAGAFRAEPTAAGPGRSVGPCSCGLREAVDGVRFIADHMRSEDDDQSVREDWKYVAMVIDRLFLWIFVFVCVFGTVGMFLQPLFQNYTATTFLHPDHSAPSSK
Sequence of α6/α3β2β3 nAChR (P12391 whole entry, looked up): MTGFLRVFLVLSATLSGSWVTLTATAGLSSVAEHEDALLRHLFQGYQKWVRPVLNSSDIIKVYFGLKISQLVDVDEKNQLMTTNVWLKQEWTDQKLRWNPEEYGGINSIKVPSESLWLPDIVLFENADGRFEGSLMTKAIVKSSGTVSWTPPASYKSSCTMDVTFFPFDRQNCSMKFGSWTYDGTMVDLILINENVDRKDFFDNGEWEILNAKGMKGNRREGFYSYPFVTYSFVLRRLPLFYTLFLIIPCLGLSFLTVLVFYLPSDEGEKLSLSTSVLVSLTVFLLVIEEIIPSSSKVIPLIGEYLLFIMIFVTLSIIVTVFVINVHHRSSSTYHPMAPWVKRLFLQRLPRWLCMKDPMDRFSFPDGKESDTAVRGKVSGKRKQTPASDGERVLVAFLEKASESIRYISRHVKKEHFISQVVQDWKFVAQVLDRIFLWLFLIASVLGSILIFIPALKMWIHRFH
Sequence of α6/α3β2β3 nAChR (P43143 whole entry, looked up): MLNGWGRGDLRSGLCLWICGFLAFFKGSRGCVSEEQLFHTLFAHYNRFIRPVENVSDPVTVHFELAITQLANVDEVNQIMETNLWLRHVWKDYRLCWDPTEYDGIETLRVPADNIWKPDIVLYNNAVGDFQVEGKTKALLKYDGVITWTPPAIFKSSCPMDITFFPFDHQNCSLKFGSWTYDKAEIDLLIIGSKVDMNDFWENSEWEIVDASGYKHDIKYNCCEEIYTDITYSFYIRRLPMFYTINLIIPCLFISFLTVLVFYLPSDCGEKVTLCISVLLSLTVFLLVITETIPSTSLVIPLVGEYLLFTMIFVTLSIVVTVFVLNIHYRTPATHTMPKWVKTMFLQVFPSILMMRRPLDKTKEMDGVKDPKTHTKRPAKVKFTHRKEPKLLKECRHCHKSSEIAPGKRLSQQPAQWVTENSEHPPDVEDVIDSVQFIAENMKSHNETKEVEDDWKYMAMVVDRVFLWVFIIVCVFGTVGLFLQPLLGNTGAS
Sequence of α2β2 nAChR (P12389 28-511 limits assumed): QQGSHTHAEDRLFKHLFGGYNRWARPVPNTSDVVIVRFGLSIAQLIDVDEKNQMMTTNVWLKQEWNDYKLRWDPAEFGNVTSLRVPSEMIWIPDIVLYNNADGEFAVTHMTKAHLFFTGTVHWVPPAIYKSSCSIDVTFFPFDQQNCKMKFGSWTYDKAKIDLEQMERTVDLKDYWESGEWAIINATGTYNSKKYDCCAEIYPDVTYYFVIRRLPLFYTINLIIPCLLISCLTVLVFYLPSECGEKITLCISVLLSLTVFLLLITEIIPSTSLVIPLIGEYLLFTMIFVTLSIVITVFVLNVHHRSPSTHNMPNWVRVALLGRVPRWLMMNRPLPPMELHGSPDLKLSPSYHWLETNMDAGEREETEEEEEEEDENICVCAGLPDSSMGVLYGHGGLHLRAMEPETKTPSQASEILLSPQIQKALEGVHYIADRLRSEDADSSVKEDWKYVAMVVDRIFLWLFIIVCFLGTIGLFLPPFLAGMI
Sequence of α2β2 nAChR (P12390 25-500 limits assumed): as the sequence (P12390 25-500 limits assumed) above
Sequence of α3β4 nAChR (P04757 26-499 limits assumed): as the sequence (P04757 26-499 limits assumed) above
Sequence of α3β4 nAChR (P12392 21-495 limits assumed): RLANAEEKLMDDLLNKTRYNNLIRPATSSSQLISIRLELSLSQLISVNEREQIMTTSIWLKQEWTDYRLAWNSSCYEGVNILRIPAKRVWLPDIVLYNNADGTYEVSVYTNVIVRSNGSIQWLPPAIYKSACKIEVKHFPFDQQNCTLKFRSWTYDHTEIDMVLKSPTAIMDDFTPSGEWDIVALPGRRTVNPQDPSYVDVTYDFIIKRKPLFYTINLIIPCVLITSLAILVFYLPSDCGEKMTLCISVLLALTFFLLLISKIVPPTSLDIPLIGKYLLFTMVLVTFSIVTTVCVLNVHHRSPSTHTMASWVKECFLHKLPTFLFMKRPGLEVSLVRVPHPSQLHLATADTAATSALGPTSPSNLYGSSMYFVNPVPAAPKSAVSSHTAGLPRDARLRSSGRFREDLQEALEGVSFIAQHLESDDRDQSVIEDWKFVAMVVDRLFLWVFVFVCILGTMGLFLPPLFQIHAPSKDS

Usually inhibition stands for the relative decrease from the control value, in per cent. Read a high inhibition as a response far below the control. Turning to `CC(C)C[C@@H]1NC(=O)[C@H](C(C)C)NC(=O)[C@H](C)NC(=O)[C@@H]2CSSC[C@H](NC(=O)CN)C(=O)N[C@@H](CSSC[C@@H](C(N)=O)NC(=O)[C@H](Cc3c[nH]cn3)NC1=O)C(=O)N[C@@H](CO)C(=O)N[C@@H]([C@@H](C)O)C(=O)N1CCC[C@H]1C(=O)N1CCC[C@H]1C(=O)N2` [AdIA] (H-GCCSTPPCAVLHC-NH2; disulfide 2-8, 3-13), the IC50 was more than 10 nM on α2β2 nAChR; 177 nM at α6/α3β2β3 nAChR; more than 10 nM against α3β4 nAChR; more than 10 nM at α7 nAChR; more than 10000 nM in the experiment on other nAChR subtypes (read-out: potency); more than 10 nM against α9α10 nAChR. The IC50 against α3β2 nAChR is 1380 nM; at α4β2 nAChR, more than 10 nM. Besides, the “Hill Slope” value at α6/α3β2β3 nAChR was −1.14; at α3β2 nAChR, −1.24. Moreover, the inhibition in the experiment with other nAChR subtypes is not above 50%. Also, the “fold lower potency than at α6/α3β2β3” value at α3β2 nAChR is on record as “at least 8 fold”.
For the molecule `C[C@@H]1NC(=O)[C@@H]2CCCN2C(=O)[C@H](Cc2c[nH]cn2)NC(=O)[C@@H]2CSSC[C@@H](C(N)=O)NC(=O)[C@H](CC(N)=O)NC(=O)[C@H](Cc3ccc(O)cc3)NC(=O)[C@H](CCCCN)NC(=O)[C@H](CCCNC(=N)N)NC(=O)CNC(=O)[C@H](CSSC[C@H](NC(=O)[C@H](CCCNC(=N)N)NC(=O)CN)C(=O)N2)NC1=O` [GaIA] (H-GRCCHPACGRKYNC-NH2; disulfide 3-8, 4-14), the “Hill Slope” value at α2β2 nAChR is listed as −1.09; at α6/α3β2β3 nAChR, −0.87; on α3β4 nAChR, −1.37; at α7 nAChR it was −1.45; on α9α10 nAChR, −0.93; at α3β2 nAChR, −1.25. On α4β2 nAChR, the “Hill Slope” value was −1.28. Besides, the IC50 is more than 1000 nM in the experiment on other nAChR subtypes (read-out: IC50) and 777 nM against α9α10 nAChR. Moreover, the “fold less potency than at muscle-type α1β1γδ” value on α3β2 nAChR was “about 25 fold”.

Values taken from publication PMC10301793 (Marine Drugs, 2023).
